The structures appear in SMILES notation. Some results are limits rather than exact numbers.

Series [1] addresses 5-HT4 receptors (Homo sapiens (Human), UniProt Q13639). Kind of series: Determination of EC50 values for 5-HT4 receptor (pCRE-Luc reporter assay). Type of series: cell-based. Particulars: CHO cells expressing recombinant human 5-HT4 receptor and pCRE-Luc reporter; 4 h incubation; luciferase activity. Here is the method: A stable CHO cell line expressing recombinant human 5-HT4 receptor and pCRE-Luc reporter system was used for cell-based assay. The assay offers a non-radioactive based approach to determine binding of a compound to GPCRs. In this specific assay, the level of intracellular cyclic AMP, which is modulated by activation, or inhibition of the receptor is measured. The recombinant cells harbor luciferase reporter gene under the control of cAMP response element.
The above cells were grown in 96 well clear bottom white plates in Ham's F12 medium containing 10% fetal bovine serum. Prior to the addition of compounds or standard agonist, cells were serum starved overnight. Increasing concentrations of test compounds were added to the cells in OptiMEM medium. The incubation was continued in CO2 incubator at 37° C. with 5% CO2 conditions for 4 h. Medium was removed and cells were washed with phosphate buffered saline. The cells were lysed and luciferase activity was measured in a Luminometer. Concentration-response data was generated using the luciferase assay, following incubation of cells with receptor ligands, were analyzed by subtracting basal levels (i.e. with medium alone), then normalizing values as a percentage of controls (endogenous agonist serotonin (10 μM)). […] EC50 values of the compounds were defined as the concentration required in stimulating the luciferase activity by 50%.

Series [2] can be described thus: Rat pharmacokinetic study. Type of series: in vivo. Conditions: male Wistar rats, plasma. Here is the method:
Male Wistar rats (250±50 g) were used as experimental animals. Animals were housed individually in polypropylene cages. Two days prior to study, rats were anesthetized with isoflurane for surgical placement of jugular vein catheter. Rats were randomly divided for oral (3 mg/kg and 10 mL/kg as dose volume) and intravenous (1 mg/kg and 2 mL/kg as dose volume) dosing (n=3/group) and fasted overnight before oral dosing (p.o.). However, rats allocated to intravenous dosing food and water was provided ad libitum.
Intravenous formulation was prepared by using water for injection as vehicle. For Oral, formulation was prepared by using reagent grade water as vehicle. The dose formulations were prepared freshly on the day of dosing.
After dosing of animal, each time point a 200 μL of blood sample was collected through jugular vein and replenished with an equivalent volume of normal saline. The collected blood sample was transferred into a labeled eppendorf tube containing 10 μL of sodium heparin (1000 IU/mL) as an anticoagulant. Typically blood samples were collected at following time points: 0.08, 0.25, 0.5, 1, 2, 4, 6, 8, and 24 h post dose. Blood was centrifuged at 4000 rpm for 10 min. Plasma was separated and stored frozen at −80° C. until analysis. The concentrations of the test compounds were quantified in plasma by qualified LC-MS/MS method using a suitable extraction technique. The test compounds were quantified in the calibration range around 1-2000 ng/mL in plasma. Study samples were analyzed using calibration samples in the batch and quality control samples spread across the batch.
Pharmacokinetic parameters Cmax, AUCt, t1/2 and bioavailability were calculated by non-compartmental model using standard non-compartmental model by using Phoenix WinNonlin 6.4 version Software.

Series [3] has as its system colonic transit. Briefly: Effect on colonic transit in Swiss mice. The format is in vivo, Male Swiss mice. Conditions: 1 and 3 mg/kg, p.o., carmine dye, 3 h after dye. Here is the method:
Male Swiss mice of body weight ˜20-30 g were fasted for 16 h with free access to water prior to the experiment. Mice were administrated compound of example 2 or vehicle, 30 min after administration of 0.5 ml of carmine dye solution. Mice were sacrificed 3 h after dye administration and the distance traveled by the dye from proximal colon was measured. Colonic transit was expressed as % colonic transit=100×(length of colon in which carmine moved/total length of colon).

In series [4] the target is hERG tail currents in HEK293-hERG cells (Homo sapiens (Human), UniProt Q12809). Briefly: hERG patch-clamp assay. Conditions: whole cell patch-clamp, tail current at -40 mV, read-out: half maximal inhibitory concentration of hERG tail currents (IC50). Type of series: cell-based. Here is the method: The HEK293-hERG cells for patch-clamp assay were cultured in DMEM: Ham's F12 (1:1 ratio) with 10% fetal bovine serum containing 0.5 mg/ml of selective antibiotic, G-418 sulfate (Calbiochem) and 0.1% penicillin and streptomycin (Thermofisher, MA, USA) in T-75 flask. Cells were harvested at 70-80% confluency by washing with Hanks' Balanced Salt Solution lacking Mg^2+ and Ca^2+ ions and subsequent addition of accumax (2.5 mL) (Sigma Aldrich, MO, USA) and incubated the flask at 5% CO2 and 37° C. until cells start sliding of the surface. After cells have completely detached from the surface about 10 mL of complete media without selective antibiotic was added and pipetted to detach the cell clumps. Additional 7.5 mL of complete media was added to collect the residual cells in the flask and cell suspension was incubated at 5% CO2 and 37° C. for 30 min. […] The peak current is measured at −40 mV tail currents using Patchliner instrument. The I-V pulse protocol was pulsed every 10 s and online analysis were recorded by substituting the leak current from the peak current and IC50 values were calculated from IGOR PRO software (WaveMetrics, Inc. Portland, OR, USA).
Chain of hERG tail currents in HEK293-hERG cells (Q12809 whole entry): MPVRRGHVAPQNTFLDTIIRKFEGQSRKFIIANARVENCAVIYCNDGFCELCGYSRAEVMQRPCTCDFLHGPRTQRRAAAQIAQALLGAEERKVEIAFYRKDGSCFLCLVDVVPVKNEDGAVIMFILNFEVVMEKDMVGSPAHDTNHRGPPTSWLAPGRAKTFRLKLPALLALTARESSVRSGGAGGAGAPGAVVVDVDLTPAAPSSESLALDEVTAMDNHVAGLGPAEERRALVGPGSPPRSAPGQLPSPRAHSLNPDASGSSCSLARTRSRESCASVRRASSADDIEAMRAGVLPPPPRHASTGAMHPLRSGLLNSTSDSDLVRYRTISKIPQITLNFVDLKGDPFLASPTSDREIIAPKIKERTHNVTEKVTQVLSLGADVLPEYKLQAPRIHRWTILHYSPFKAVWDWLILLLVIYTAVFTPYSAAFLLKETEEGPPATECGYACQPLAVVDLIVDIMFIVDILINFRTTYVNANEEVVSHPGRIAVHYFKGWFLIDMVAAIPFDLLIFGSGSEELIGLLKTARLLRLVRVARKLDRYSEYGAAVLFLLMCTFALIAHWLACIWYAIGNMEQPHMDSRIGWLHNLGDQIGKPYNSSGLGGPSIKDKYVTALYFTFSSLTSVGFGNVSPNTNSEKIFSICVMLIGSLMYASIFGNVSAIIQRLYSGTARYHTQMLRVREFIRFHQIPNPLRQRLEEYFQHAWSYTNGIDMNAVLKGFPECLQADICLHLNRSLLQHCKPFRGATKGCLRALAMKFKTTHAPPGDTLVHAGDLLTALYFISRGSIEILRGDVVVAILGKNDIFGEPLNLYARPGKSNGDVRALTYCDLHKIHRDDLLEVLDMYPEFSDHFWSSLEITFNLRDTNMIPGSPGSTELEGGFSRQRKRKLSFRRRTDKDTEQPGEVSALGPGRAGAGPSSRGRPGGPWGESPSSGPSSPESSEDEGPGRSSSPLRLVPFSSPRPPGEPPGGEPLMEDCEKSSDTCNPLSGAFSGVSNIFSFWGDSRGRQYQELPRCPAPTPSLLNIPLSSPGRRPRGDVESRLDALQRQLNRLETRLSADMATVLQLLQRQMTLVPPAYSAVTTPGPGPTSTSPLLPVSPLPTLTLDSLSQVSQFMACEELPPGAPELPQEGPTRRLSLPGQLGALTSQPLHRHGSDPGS

Series [5] has as its system intestinal (jejunum) EMG activity. Kind of series: Intestinal myoelectrical activity in male Wistar rats. Type of series: in vivo. Particulars: p.o. Here is the method: Method: The telemetry transmitter (F40-EET; DSI, MA, USA) was implanted subcutaneously in the rat and the spring electrodes were implanted into the walls of intestine (jejunum) under isoflurane anesthesia. After two weeks of surgical recovery, animals were fasted for 14 h and transferred to recording cages. The transmitter was switched on using magnetic switch and baseline intestinal EMG activity was recorded for 3 h. Rats were treated with vehicle, test compound of example 2 (10 or 30 mg/kg, p.o.) or positive control, prucalopride (10 mg/kg, p.o.) was administered and EMG signals were recorded for additional 3 h using Ponemah software (DSI, MA, USA). Animals were given access to only water during study. The recorded EMG signal was filtered using 20-50 Hz band filter and spiking activity was measured in bouts of 30 min using NeuroScore software (DSI, MA, USA).

Chain of 5-HT4 receptors (Q13639 whole entry): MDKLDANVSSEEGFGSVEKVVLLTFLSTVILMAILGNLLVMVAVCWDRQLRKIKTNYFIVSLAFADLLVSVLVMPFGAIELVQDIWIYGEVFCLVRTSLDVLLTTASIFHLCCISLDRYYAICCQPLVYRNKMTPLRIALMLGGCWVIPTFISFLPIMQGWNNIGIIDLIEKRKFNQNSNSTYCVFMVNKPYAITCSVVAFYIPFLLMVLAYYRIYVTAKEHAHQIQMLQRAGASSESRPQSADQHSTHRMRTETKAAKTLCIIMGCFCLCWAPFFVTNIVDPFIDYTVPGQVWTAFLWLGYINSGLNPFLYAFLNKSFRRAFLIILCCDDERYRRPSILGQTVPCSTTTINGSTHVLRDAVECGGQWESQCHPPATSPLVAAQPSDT

With `CC(C)n1c(=O)c(C(=O)NC2CC3CCC(C2)N3C[C@@H](O)CN(C)S(C)(=O)=O)cc2cccn21.O=C(O)C(O)C(O)C(=O)O` (single isomer, unassigned) [Example 2], the EC50 in series [1] was determined as 4.1 nM. In addition, in series [2] (intravenous (bolus), 1 mg/kg), the AUC(0-t) came out at 65 ± 3 ng·h/mL and the half-life is 1.5 ± 0.5 h. Further, in series [2] (oral (gavage), 3 mg/kg), the AUC(0-t) came to 160 ± 35 ng·h/mL and the Cmax is 51 ± 19 ng/mL. In addition, the bioavailability in series [2] (oral 3 mg/kg vs intravenous 1 mg/kg) turned out to be 83 ± 18%. Further, the colonic transit result in series [3] is on record as “increased the colonic transit”. Further, the IC50 in series [4] is more than 10000 nM. Also, the “increase in myoelectric activity” value in series [5] (30 mg/kg, jejunum EMG spiking) is 97±31%. The myoelectric activity entry in series [5] (10 or 30 mg/kg) is “dose-dependent increase in myoelectric activity”.

The record behind these values is patent US20250019386A1, “PYRROLO[1,2-b]-2-PYRIDAZINONE COMPOUNDS AS 5-HT4 RECEPTOR AGONISTS” (SUVEN LIFE SCIENCES LIMITED, priority 2022, published 2025).
